Measured values: patent US20260274810A1, “NOVEL MITOFUSIN INHIBITORS” (ALBERT EINSTEIN COLLEGE OF MEDICINE, priority 2023, published 2026)
Numbered stars: 1 amine (or outer) side, 2 acyl side, 3 side chain; on linkers, the order of the positions; unused ones are H or OH. Bridge positions count the residues as written; N and C are the ends. Square brackets hold non-standard residues; d marks the D form. Peptide text beside a SMILES is read from it. I, II: the chains in the order shown. Hexamethylenediamine = C(CCCN[*:2])CCN[*:1]; Dip = N[C@H](C(=O)O)C(c1ccccc1)c1ccccc1; Chg = N[C@H](C(=O)O)C1CCCCC1; NMeA = CN[C@@H](C)C(=O)O

Key:
HR2 domain of MFN2 = biological target: T1, HR2 domain of MFN2 (Homo sapiens, UniProt O95140); assay: Microscale thermophoresis (MST) binding
T1 construct: Human MFN2 residues 678-757 corresponding to the HR2 domain; made in house; host or cells: E. coli BL21(DE3) CodonPlus (DE3)-RIPL
T1 sequence (O95140 678-757): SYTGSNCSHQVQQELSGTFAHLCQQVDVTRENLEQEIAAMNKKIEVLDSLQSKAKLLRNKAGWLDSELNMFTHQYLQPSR
Protocol: Freshly purified His-tagged MFN2-HR2 domain was used for Microscale Thermophoresis (MST) binding studies. For protein labelling, a fresh stock of 5 M His-tag-RED-tris-NTA 2nd generation dye (Nanotemper) in 25 mM Hepes pH 7.5, 100 mM NaCl, 0.005% Tween-20 (assay buffer) was used to label 500 nM of MFN2-HR2 in the same buffer. The labeling reaction was incubated for 30 min at RT and centrifuged at 15.000×g at 4° C. for 10 min. Labelled protein from the supernatant was kept on ice and used immediately. Compounds were serially diluted in 100% DMSO. Immediately before mixing with labeled protein, the dilution series was transferred in assay buffer to reach 2% DMSO. 10 μl of each compound in the final series was mixed with 10 µl of labeled protein and samples were incubated for 5 min at 30° C. before MST measurement using a MonolithNT.115 instrument (Nanotemper). Peptides were diluted in assay buffer plus 2% DMSO and treated as above. […] Kd values were obtained from non-linear regression fits of normalized data to a three or four parameter logistic curve, using GraphPad Prism 9.

caspase-3/7 in MEFs = assay: Caspase-3/7 activation assay; assay type: cell-based, mouse; settings: 6 hr
Protocol: Caspase-3/7 activation assay. Cells (5×10^3 cells/well) were seeded in a 96-well white plate and treated with MASM7, MFI8. Caspase 3/7 activation was measured after 6 hr by addition of the Caspase-Glo 3/7 reagent according to the manufacturer's protocol (Promega). Luminescence was detected by a F200 PRO microplate reader (TECAN). Caspase assays were performed in at least triplicate and the data normalized to vehicle-treated control wells. Dilutions of MASM7 or MFI8 were performed using a TECAN D300e Digital Dispenser from 10 mM stocks.

cells = assay: Cell death assay (Annexin V / PI); assay type: cell-based
Protocol: Cell death assay. Cells (2×10^5 cells/well) were seeded in a 6-well plate and treated with the indicated drugs for 6 hours. Cells were dissociated using Accutase (Thermo Fisher; Cat. #00-4555-56) in order to avoid accidental exposure of phosphatidylserine on the outer plasma membrane. Cell death was evaluated with Dead Cell Apoptosis Kit with Annexin V Alexa Fluor™ 488 & Propidium Iodide (Thermo Fisher; Cat. #V13241) according to manufacturer's protocol. Data was acquired by BD LSRII flow cytometer system using BD FACSDiva software. Data was analyzed by FlowJo (BD).

MEFs = assay: Mitochondrial aspect ratio (Mito AR), live cell imaging; settings: for mitochondrial aspect ratio / mitochondrial fragmentation: WT cells
Protocol: Live cell imaging. MEFs were seeded on chamber slides (MatTek Corporation: 35 mm dishes, No. 1.5, 14 mm glass diameter) at ~70% confluence. […] Images were taken with Leica SP5 inverted confocal microscope. Data were analyzed with Image J software. >200 mitochondria were measured per condition in mitochondrial aspect ratio.
Measurement of mitochondrial aspect ratio (Mito AR). Images that depict stained mitochondria with mitotracker green were analyzed using FIJI We measured for each mitochondrion its length and width. Then, we divided the length by the width for each mitochondrion to get its mitochondrial aspect ratio. >200 mitochondria were measured per treatment.
MEFs were seeded on chamber slides (MatTek Corporation: 35 mm dishes, No. 1.5, 14 mm glass diameter) at ~70% confluence. Cells were treated with compounds. Then, cells were stained with MitoTracker Green (200 nM, Invitrogen) for 20 min at 37° C. After treatments, media was replaced with FluoroBrite™ DMEM (Invitrogen) supplemented with 10% FBS, 100 U ml^−1 penicillin/streptomycin, 2 mM L-glutamine and compound prior image acquisition. Images were taken with Leica SP5 inverted confocal microscope. Data were analyzed with Image J software. >200 mitochondria were measured per condition in mitochondrial aspect ratio. Measurement of mitochondrial aspect ratio (Mito AR). Images that depict stained mitochondria with mitotracker green were analyzed using FIJI software. Each mitochondrion was measured for its length and width. Then, the length was divided by the width for each mitochondrion to get its mitochondrial aspect ratio. >200 mitochondria were measured per treatment.

MFNs = settings: reported small molecule; cited from earlier work
[1] = mouse liver microsome assay; assay type: in vitro ADME; settings: FIG. 2

Cc1cccc(NC(C)c2ccccc2O)c1C (stereo not shown) [MFI22]
binding to the HR2 domain of MFN2 (HR2 domain of MFN2): did not demonstrate measurable binding | caspase-3/7 activity (caspase-3/7 in MEFs): did not increase caspase-3/7 activity | sensitization to BV6-induced cell death (cells; combined with BV6): did not sensitize cells to BV6 treatment | mitochondrial aspect ratio / mitochondrial fragmentation (MEFs): significantly reduced the capacity of the compound to promote mitochondrial fragmentation

Cc1oncc1C(=O)Nc1ccc(C(F)(F)F)cc1 [Leflunomide]
MFNs protein levels (MFNs): alters MFNs protein levels through loss of pyrimidine synthesis

Cc1cccc(NC(C)c2cccc(Cl)c2)c1C (stereo not shown) [MFI26]
binding to the HR2 domain of MFN2 (HR2 domain of MFN2): did not demonstrate measurable binding | mitochondrial aspect ratio / mitochondrial fragmentation (MEFs): detrimental for the activity

CN[C@@H](C)C(=O)N[C@H](C(=O)N1CCC[C@H]1C(=O)N[C@H](C(=O)NCCCCCCNC(=O)[C@@H](NC(=O)[C@@H]1CCCN1C(=O)[C@@H](NC(=O)[C@H](C)NC)C1CCCCC1)C(c1ccccc1)c1ccccc1)C(c1ccccc1)c1ccccc1)C1CCCCC1 [BV6, reference compound] (I: H-[NMeA][Chg]P[Dip] / II: H-[NMeA][Chg]P[Dip]; linker I:C-II:C via Hexamethylenediamine)
cell death on BV6 treatment (cells; deletion of MFNs): sensitized cells to BV6 treatment

Cc1cccc(NC(=O)c2cc(Cl)cc(-c3ccccn3)c2O)c1C [MFI43]
IC50 (MEFs; Mus musculus, 6 h, read-out: IC50 (decrease of Mito AR)): 1790 nM | half life (t½) [1]: increased half life
